In US12673944B2, “Compounds having inhibitory activity against glucosylceramide synthase or pharmaceutically acceptable salt thereof, processes for preparing the same, and pharmaceutical compositions comprising the same” (YUHAN CORPORATION, priority 2019, dated 2026) one finds IC50 data, which are given here for 29 compounds.

Assay [1] has as its system GM1 production in Jurkat cells. The assay is described as follows: cells. The settings on record: Homo sapiens, Jurkat, 72 h. The class given is cell-based.
For assay [2], the target named is T1, glucosylceramide synthase (GCS) (Homo sapiens, UniProt Q16739).
T1 construct: The obtained supernatant was used; host or cells: A549 cells (lysate supernatant after sonication)
T1 sequence (Q16739 1-394): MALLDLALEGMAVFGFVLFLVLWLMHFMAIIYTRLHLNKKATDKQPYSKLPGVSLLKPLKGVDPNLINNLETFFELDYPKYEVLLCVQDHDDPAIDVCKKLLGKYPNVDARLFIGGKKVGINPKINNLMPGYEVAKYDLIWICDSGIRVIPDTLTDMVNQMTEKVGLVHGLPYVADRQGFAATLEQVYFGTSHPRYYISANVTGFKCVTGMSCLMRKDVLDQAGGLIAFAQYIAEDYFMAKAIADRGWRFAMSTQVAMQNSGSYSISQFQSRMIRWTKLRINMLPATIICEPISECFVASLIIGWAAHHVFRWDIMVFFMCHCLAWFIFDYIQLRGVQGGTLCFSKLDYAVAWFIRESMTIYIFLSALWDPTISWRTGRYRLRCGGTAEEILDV
The assay is described as follows: GCS enzyme inhibition assay (A549 cell lysate, NBD C6-ceramide, HPLC fluorescence). Format: biochemical. Particulars: inhibitory activity against GCS, 37° C., 90 minutes. A digest of the protocol:
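Percent GCS activity was derived from the GlcCer share of Cer plus GlcCer areas, scaled from ibiglustat (0%) to DMSO (100%). Enzyme came from sonicated A549 lysate in 50 mM HEPES pH 7.3; 90 min incubation at 37° C, chloroform/methanol stop and extraction.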

The term IC50 denotes the concentration that inhibits the measured activity by half. Higher therefore signals a need for much substance. With `CC(C)c1cccc(-c2ccc3c(c2)OCC(C)(C)C3NC(=O)O[C@@H]2CN3CCC2CC3)c1` (stereo partly drawn) [Example 151, (S)-quinuclidin-3-yl (7-(3-isopropylphenyl)-3,3-dimethylchroman-4-yl)carbamate], the IC50 turned out to be 0.31 nM in assay [1] and 0.53 nM in assay [2].
For `CC(C)(C)c1cccc(-c2ccc3c(c2)OCC(C)(C)C3NC(=O)O[C@@H]2CN3CCC2CC3)c1` (stereo partly drawn) [Example 152, (S)-quinuclidin-3-yl (7-(3-(tert-butyl)phenyl)-3,3-dimethylchroman-4-yl)carbamate] the same measures were 0.22 nM and 0.91 nM.
Consider `COc1ccc(Cl)c(-c2ccc3c(c2)OCC(C)(C)C3NC(=O)O[C@@H]2CN3CCC2CC3)c1` (stereo partly drawn) [Example 153, (S)-quinuclidin-3-yl (7-(2-chloro-5-methoxyphenyl)-3,3-dimethylchroman-4-yl)carbamate], for which the concentration for half-maximal inhibition (IC50) in assay [1] was 0.06 nM; in assay [2] it was 0.48 nM.
For `CC1(C)COc2cc(-c3cccc(-c4ccccc4)c3)ccc2C1NC(=O)O[C@@H]1CN2CCC1CC2` (stereo partly drawn) [Example 154, (S)-quinuclidin-3-yl (7-([1,1′-biphenyl]-3-yl)-3,3-dimethylchroman-4-yl)carbamate] the same measures were 0.41 nM and 0.74 nM.
In the same order, the values of `CC1(C)COc2cc(-c3cncc4ccccc34)ccc2C1NC(=O)O[C@@H]1CN2CCC1CC2` (stereo partly drawn) [Example 155, (S)-quinuclidin-3-yl (7-(isoquinolin-4-yl)-3,3-dimethylchroman-4-yl)carbamate] are 0.77 nM and 0.6 nM.
With `CC1(C)COc2cc(-c3ccccc3F)ccc2C1NC(=O)O[C@@H]1CN2CCC1CC2` (stereo partly drawn) [Example 156, (S)-quinuclidin-3-yl (7-(2-fluorophenyl)-3,3-dimethylchroman-4-yl)carbamate], the figures for the IC50 in assay [1] and in assay [2] were 0.27 nM and 0.29 nM, respectively.
In the same order, the values of `CC1(C)COc2cc(-c3ccccc3OC(F)(F)F)ccc2C1NC(=O)O[C@@H]1CN2CCC1CC2` (stereo partly drawn) [Example 157, (S)-quinuclidin-3-yl (3,3-dimethyl-7-(2-(trifluoromethoxy)phenyl)chroman-4-yl)carbamate] are 0.12 nM and 0.48 nM.
For `CCOc1cccc(-c2ccc3c(c2)OCC(C)(C)C3NC(=O)O[C@@H]2CN3CCC2CC3)c1` (stereo partly drawn) [Example 158, (S)-quinuclidin-3-yl (7-(3-ethoxyphenyl)-3,3-dimethylchroman-4-yl)carbamate] the same measures were 1.5 nM and 0.42 nM.
In the same order, the values of `Cn1ncc2c(-c3ccc4c(c3)OCC(C)(C)C4NC(=O)O[C@@H]3CN4CCC3CC4)cccc21` (stereo partly drawn) [Example 159, (S)-quinuclidin-3-yl (3,3-dimethyl-7-(1-methyl-1H-indazol-4-yl)chroman-4-yl)carbamate] are 0.55 nM and 0.57 nM.
In the case of `CC1(C)COc2cc(-c3cccc4ccncc34)ccc2C1NC(=O)O[C@@H]1CN2CCC1CC2` (stereo partly drawn) [Example 160, (S)-quinuclidin-3-yl (7-(isoquinolin-8-yl)-3,3-dimethylchroman-4-yl)carbamate], the IC50 came out at 0.54 nM in assay [1] and 0.52 nM in assay [2].
For `CC1(C)COc2cc(-c3ccc(C4CC4)cc3)ccc2C1NC(=O)O[C@@H]1CN2CCC1CC2` (stereo partly drawn) [Example 161, (S)-quinuclidin-3-yl (7-(4-cyclopropylphenyl)-3,3-dimethylchroman-4-yl)carbamate], the figures for the IC50 in assay [1] and in assay [2] were 0.18 nM and 0.38 nM, respectively.
For the compound `COc1ccccc1-c1ccc2c(c1)OCC(C)(C)C2NC(=O)O[C@@H]1CN2CCC1CC2` (stereo partly drawn) [Example 162, (S)-quinuclidin-3-yl (7-(2-methoxyphenyl)-3,3-dimethylchroman-4-yl)carbamate], the values for the IC50 in assay [1] and in assay [2] were 0.02 nM and 0.52 nM, respectively.
For the compound `CC1(C)COc2cc(-c3ccc4c(c3)CCCO4)ccc2C1NC(=O)O[C@@H]1CN2CCC1CC2` (stereo partly drawn) [Example 163, (S)-quinuclidin-3-yl (3′,3′-dimethyl-[6,7′-bichroman]-4′-yl)carbamate], the IC50 was 0.5 nM in assay [1] and 0.59 nM in assay [2].
As for `CC1(C)COc2cc(-c3cc(Cl)cc(C(F)(F)F)c3)ccc2C1NC(=O)O[C@@H]1CN2CCC1CC2` (stereo partly drawn) [Example 164, (S)-quinuclidin-3-yl (7-(3-chloro-5-(trifluoromethyl)phenyl)-3,3-dimethylchroman-4-yl)carbamate], the values for the IC50 in assay [1] and in assay [2] were 3.22 nM and 1.59 nM, respectively.
On to `CC1(C)COc2cc(-c3cccc4cccnc34)ccc2C1NC(=O)O[C@@H]1CN2CCC1CC2` (stereo partly drawn) [Example 165, (S)-quinuclidin-3-yl (3,3-dimethyl-7-(quinolin-8-yl)chroman-4-yl)carbamate], for which the IC50 is 0.66 nM in assay [1] and 0.82 nM in assay [2].
In the same order, the values of `COc1cccc(-c2ccc3c(c2)OCC(C)(C)C3NC(=O)O[C@@H]2CN3CCC2CC3)c1` (stereo partly drawn) [Example 166, (S)-quinuclidin-3-yl (7-(3-methoxyphenyl)-3,3-dimethylchroman-4-yl)carbamate] are 0.07 nM and 0.31 nM.
On to `CC(C)Oc1ccc(-c2ccc3c(c2)OCC(C)(C)C3NC(=O)O[C@@H]2CN3CCC2CC3)cc1Cl` (stereo partly drawn) [Example 167, (S)-quinuclidin-3-yl (7-(3-chloro-4-isopropoxyphenyl)-3,3-dimethylchroman-4-yl)carbamate], for which the IC50 in assay [1] turned out to be 3.28 nM; in assay [2], 0.71 nM.
Consider `COc1cccc(OC)c1-c1ccc2c(c1)OCC(C)(C)C2NC(=O)O[C@@H]1CN2CCC1CC2` (stereo partly drawn) [Example 168, (S)-quinuclidin-3-yl (7-(2,6-dimethoxyphenyl)-3,3-dimethylchroman-4-yl)carbamate], for which the IC50 was determined as 2.05 nM in assay [1] and 1.4 nM in assay [2].
For `CC1(C)COc2cc(-c3ccccc3Cl)ccc2C1NC(=O)O[C@@H]1CN2CCC1CC2` (stereo partly drawn) [Example 169, (S)-quinuclidin-3-yl (7-(2-chlorophenyl)-3,3-dimethylchroman-4-yl)carbamate] the same measures were 0.25 nM and 0.37 nM.
For `CC1(C)COc2cc(-c3cccc(C#N)c3)ccc2C1NC(=O)O[C@@H]1CN2CCC1CC2` (stereo partly drawn) [Example 170, (S)-quinuclidin-3-yl (7-(3-cyanophenyl)-3,3-dimethylchroman-4-yl)carbamate] the same measures were 5.83 nM and 0.42 nM.
For `CN(C)c1cc(-c2ccc3c(c2)OCC(C)(C)C3NC(=O)O[C@@H]2CN3CCC2CC3)ccc1F` (stereo partly drawn) [Example 171, (S)-quinuclidin-3-yl (7-(3-(dimethylamino)-4-fluorophenyl)-3,3-dimethylchroman-4-yl)carbamate] the same measures were 5.23 nM and 0.79 nM.
As for `CC1(C)COc2cc(-c3ccc4c(c3)OCCO4)ccc2C1NC(=O)O[C@@H]1CN2CCC1CC2` (stereo partly drawn) [Example 172, (S)-quinuclidin-3-yl (7-(2,3-dihydrobenzo[b][1,4]dioxin-6-yl)-3,3-dimethylchroman-4-yl)carbamate], the concentration for half-maximal inhibition (IC50) turned out to be 1.92 nM in assay [1] and 0.37 nM in assay [2].
In the same order, the values of `CC1(C)COc2cc(-c3cccc4cc[nH]c34)ccc2C1NC(=O)O[C@@H]1CN2CCC1CC2` (stereo partly drawn) [Example 173, (S)-quinuclidin-3-yl (7-(1H-indol-7-yl)-3,3-dimethylchroman-4-yl)carbamate] are 2.95 nM and 1.17 nM.
For `CC(C)c1ccc(-c2ccc3c(c2)OCC(C)(C)C3NC(=O)O[C@@H]2CN3CCC2CC3)cc1` (stereo partly drawn) [Example 174, (S)-quinuclidin-3-yl (7-(4-isopropylphenyl)-3,3-dimethylchroman-4-yl)carbamate] the same measures were 1.37 nM and 0.35 nM.
Regarding `CC1(C)COc2cc(-c3ccc(F)c(C(F)(F)F)c3)ccc2C1NC(=O)O[C@@H]1CN2CCC1CC2` (stereo partly drawn) [Example 175, (S)-quinuclidin-3-yl (7-(4-fluoro-3-(trifluoromethyl)phenyl)-3,3-dimethylchroman-4-yl)carbamate], the IC50 in assay [1] was determined as 2.2 nM; in assay [2], 0.71 nM.
Take `COc1cccc(-c2ccc3c(c2)OCC(C)(C)C3NC(=O)O[C@@H]2CN3CCC2CC3)c1Cl` (stereo partly drawn) [Example 176, (S)-quinuclidin-3-yl (7-(2-chloro-3-methoxyphenyl)-3,3-dimethylchroman-4-yl)carbamate]: the IC50 came to 3.2 nM in assay [1] and 0.59 nM in assay [2].
For `COc1cc(-c2ccc3c(c2)OCC(C)(C)C3NC(=O)O[C@@H]2CN3CCC2CC3)ccc1Cl` (stereo partly drawn) [Example 177, (S)-quinuclidin-3-yl (7-(4-chloro-3-methoxyphenyl)-3,3-dimethylchroman-4-yl)carbamate] the same measures were 9.73 nM and 1.39 nM.
In the same order, the values of `CC1(C)COc2cc(-c3cccc4cn[nH]c34)ccc2C1NC(=O)O[C@@H]1CN2CCC1CC2` (stereo partly drawn) [Example 178, (S)-quinuclidin-3-yl (7-(1H-indazol-7-yl)-3,3-dimethylchroman-4-yl)carbamate] are 4.36 nM and 1.14 nM.
In the same order, the values of `CC1(C)COc2cc(-c3cc(Cl)cc(Cl)c3)ccc2C1NC(=O)O[C@@H]1CN2CCC1CC2` (stereo partly drawn) [Example 179, (S)-quinuclidin-3-yl (7-(3,5-dichlorophenyl)-3,3-dimethylchroman-4-yl)carbamate] are 4.42 nM and 1.31 nM.
